Source: patent publication US20020128295A1, “Use of pyridoxamine for the treatment and inhibition of obesity-related complications” (priority 2000, published 2002)
Marks after values point to notes of the source that are not given here.

Experiments:
[1] = system: Zucker obese (fa/fa) rats; experiment: Chemical modifications (AGE/ALEs) and fluorescence in skin collagen; type: in vivo, rat
Protocol: (§1) All experiments were carried out in accordance with the regulations of the Institutional Animal Care and Use Committee of the University of South Carolina. Female Zucker obese (fa/fa) rats 6 weeks old, (n=14) and lean (LN) littermates (Fa/fa), also 6 weeks old (n=7) were purchased from Charles River Laboratories (Wilmington, Mass.). The fa/fa rats were divided randomly into two groups of 7 each, untreated fatty control (FC) and PM-treated (FPM) animals, the latter group receiving 2 g PM/L in the drinking water. […] All animals were housed individually with a light dark cycle of 12 hours each, and had free access to food and water. The insoluble fraction of skin collagen was prepared by scraping the skin with a single-edged razor blade to remove hair and adventitious tissue, followed by a series of extractions with 0.5 M NaCl, 0.5 M acetic acid and chloroform/methanol (2:1 v/v), as described previously (Dyer et al., J. Clin. Invest. 91:2463-2469 (1993)). Fructoselysine (FL), a measure of glycation of collagen, and CML, CEL, MDA-lysine and HNE-lysine were assayed by isotope dilution, selected ion monitoring gas chromatography—mass spectrometry (SIM-GC/MS), and pentosidine by RP-HPLC, all as described previously (Requena et al., Biochem. J. 322:317-325 (1997)). Levels of AGEs/ALEs were expressed relative to the FL content of the collagen in order to correct for differences in mean age of the protein (see Table 1 and Discussion, below). Collagen fluorescence (Ex=370 nm, Em=440 nm) was measured after solubilization with pepsin (20 μg/mL in 0.5 M acetic, 24 hr at 37° C.), and was normalized to the hydroxyproline content of the collagen, measured as described by Stegemann and Stalder (Clin. Chim. Acta 18:267-273 (1967)).

[2] = system: Zucker obese (fa/fa) rats; experiment: Vascular changes in aorta and coronary arteries at necropsy; type: in vivo, rat
Protocol: All experiments were carried out in accordance with the regulations of the Institutional Animal Care and Use Committee of the University of South Carolina. Female Zucker obese (fa/fa) rats 6 weeks old, (n=14) and lean (LN) littermates (Fa/fa), also 6 weeks old (n=7) were purchased from Charles River Laboratories (Wilmington, Mass.). The fa/fa rats were divided randomly into two groups of 7 each, untreated fatty control (FC) and PM-treated (FPM) animals, the latter group receiving 2 g PM/L in the drinking water. […] All animals were housed individually with a light dark cycle of 12 hours each, and had free access to food and water. Blood was drawn from anaesthetized (isoflurane) rats by heart puncture and transferred into heparinized vacutainer tubes on ice. Plasma was separated from whole blood within 30 min by centrifugation in a refrigerated benchtop centrifuge; aliquots of plasma were stored at −70° C. until time of analysis. Rats were then killed by over-anesthetization, and liver and kidneys were removed, and both organs rinsed in phosphate buffered saline, and weighed. One kidney was cut in half transversely, and one half was removed for fixation (buffered formalin) for light microscopy. The remaining kidney and liver samples were frozen at −70° C. […]

[3] = system: streptozotocin (STZ)-induced diabetic rat; details: earlier study, cited from earlier work
[4] = system: Zucker obese (fa/fa) rats; experiment: Fasting plasma insulin (ELISA); type: in vivo, rat
Protocol: All experiments were carried out in accordance with the regulations of the Institutional Animal Care and Use Committee of the University of South Carolina. Female Zucker obese (fa/fa) rats 6 weeks old, (n=14) and lean (LN) littermates (Fa/fa), also 6 weeks old (n=7) were purchased from Charles River Laboratories (Wilmington, Mass.). The fa/fa rats were divided randomly into two groups of 7 each, untreated fatty control (FC) and PM-treated (FPM) animals, the latter group receiving 2 g PM/L in the drinking water. […] All animals were housed individually with a light dark cycle of 12 hours each, and had free access to food and water. […] All assays for proteins and metabolites in plasma and urine were performed by microplate adaptations of current methods, using a Wallac Victor Model 1420 multilabel plate reader (Wallac, Inc., Gaithersburg, Md.). […] Plasma glucose was measured using the Trinder assay Kit (Sigma #315) and total glycated hemoglobin (GlcHb) by boronate affinity chromatography (Sigma kit #442-B). Total plasma triglycerides and cholesterol were analyzed by enzymatic, calorimetric, end-point assays using Sigma kits for triglycerides (#37, GPO Trinder) and total cholesterol (#352). Insulin was measured using a direct sandwich ELISA for rat insulin (ALPCO, Windham, N.H.). […]

[5] = system: Zucker obese (fa/fa) rats; experiment: Renal function: urinary protein, albumin, plasma creatinine, urine volume; type: in vivo, rat
Protocol: All experiments were carried out in accordance with the regulations of the Institutional Animal Care and Use Committee of the University of South Carolina. Female Zucker obese (fa/fa) rats 6 weeks old, (n=14) and lean (LN) littermates (Fa/fa), also 6 weeks old (n=7) were purchased from Charles River Laboratories (Wilmington, Mass.). The fa/fa rats were divided randomly into two groups of 7 each, untreated fatty control (FC) and PM-treated (FPM) animals, the latter group receiving 2 g PM/L in the drinking water. […] All animals were housed individually with a light dark cycle of 12 hours each, and had free access to food and water. Progression of renal disease was assessed by measurements of plasma creatinine and urinary albumin and total urinary protein. Plasma creatinine concentration was measured by the Jaffe picric acid procedure, using Sigma kit #555-A. For urine collections, rats were housed in metabolic rat cages for 24 hr with free access to food and water. Several drops of toluene were added to the urine collection beaker to inhibit microbial growth. Urinary albumin was quantified by an ELISA assay. Rabbit antiserum to rat albumin and horseradish peroxidase (HRP)-conjugated goat anti-rabbit IgG were purchased from ICN Biomedical Research Products, Costa Mesa, Calif. Briefly, wells were coated with 50 ng of rat albumin (Sigma, St. Louis) in 0.1 M sodium carbonate buffer, pH 10.4, overnight at 4° C. […] After washing, horseradish peroxidase-conjugated goat anti-rabbit IgG (200 μL) was applied for 1 h at 25° C. with shaking, and the plate was developed with 200 μL of ABTS-reagent (2,2′-azino-bis(3-ethylbenzthiazoline-6-sulfonic acid) for 45 min at room temperature. Absorbance was measured at 405 nm. Total urinary protein was measured using the Sigma Microprotein-PR Kit. Based on preliminary experiments in which known amounts of PM were added to urine, PM increased the final absorbance readings in the protein assay, so that a correction (<10%) was applied for the PM content of the urine.

[6] = system: Zucker obese (fa/fa) rats; experiment: Plasma glucose and total glycated hemoglobin (glycemic control); type: in vivo, rat; details: for Plasma glucose: mean ± SD, 7 animals
Protocol: (§2) All experiments were carried out in accordance with the regulations of the Institutional Animal Care and Use Committee of the University of South Carolina. Female Zucker obese (fa/fa) rats 6 weeks old, (n=14) and lean (LN) littermates (Fa/fa), also 6 weeks old (n=7) were purchased from Charles River Laboratories (Wilmington, Mass.). The fa/fa rats were divided randomly into two groups of 7 each, untreated fatty control (FC) and PM-treated (FPM) animals, the latter group receiving 2 g PM/L in the drinking water. […] All animals were housed individually with a light dark cycle of 12 hours each, and had free access to food and water. Blood was obtained from the tail vein, using heparinized microhematocrit tubes, and plasma recovered by centrifugation at 4° C. All assays for proteins and metabolites in plasma and urine were performed by microplate adaptations of current methods, using a Wallac Victor Model 1420 multilabel plate reader (Wallac, Inc., Gaithersburg, Md.). […] Plasma glucose was measured using the Trinder assay Kit (Sigma #315) and total glycated hemoglobin (GlcHb) by boronate affinity chromatography (Sigma kit #442-B). Total plasma triglycerides and cholesterol were analyzed by enzymatic, calorimetric, end-point assays using Sigma kits for triglycerides (#37, GPO Trinder) and total cholesterol (#352). Insulin was measured using a direct sandwich ELISA for rat insulin (ALPCO, Windham, N.H.). Plasma PM concentration was measured by reverse phase high performance liquid chromatography (RP-HPLC) with fluorescence detection, using 293/393 nm excitation and emission wavelengths.

[7] = system: Zucker obese (fa/fa) rats; experiment: Systolic blood pressure by tail cuff plethysmography; type: in vivo, rat; details: initial 125-130 mm Hg at week 5; FC rose to 165 mm Hg
Protocol: (§3) All experiments were carried out in accordance with the regulations of the Institutional Animal Care and Use Committee of the University of South Carolina. Female Zucker obese (fa/fa) rats 6 weeks old, (n=14) and lean (LN) littermates (Fa/fa), also 6 weeks old (n=7) were purchased from Charles River Laboratories (Wilmington, Mass.). The fa/fa rats were divided randomly into two groups of 7 each, untreated fatty control (FC) and PM-treated (FPM) animals, the latter group receiving 2 g PM/L in the drinking water. […] All animals were housed individually with a light dark cycle of 12 hours each, and had free access to food and water. Blood pressure measurements were initiated at week 5 in the experiment after acclimating the animals to the apparatus, and were carried out the week following blood and urine collection. Measurements were made by tail cuff plethysmography using a Kent Scientific XBP instrument.

[8] = system: Zucker obese (fa/fa) rats; experiment: Dyslipidemia: plasma triglycerides and total cholesterol; type: in vivo, rat
Protocol: as §2

[9] = system: Sprague-Dawley and Zucker rats; details: rat, in vivo
Protocol: as §3, with “water.” for “water. Blood pressure measurements were initiated at week 5 in the experiment after acclimating the animals to the apparatus, and were carried out the week following blood and urine collection. Measurements were made by tail cuff plethysmography using a Kent Scientific XBP instrument.”

[10] = system: Zucker obese (fa/fa) rats; experiment: Glycation (fructoselysine) of skin collagen by SIM-GC/MS; type: in vivo, rat; details: insoluble skin collagen
Protocol: as §1

[11] = system: advanced lipoxidation end-products (ALEs); details: lipid peroxidation reactions in vitro; cited from earlier work
[12] = Week 0, 2 g PM/L in drinking water
[13] = Week 16, 2 g PM/L in drinking water
[14] = Week 32, 2 g PM/L in drinking water

Cc1ncc(CO)c(CN)c1O [PM, Pyridoxamine]
HNE-lysine detectability in skin collagen ([1]; 8 months): not detectable | MDA-lysine trace amounts in skin collagen ([1]; 8 months, in 3 of 7 animals): < 2 μmol/mol FL | MDA-Lys in skin collagen ([1]; Week 32): Trace | Fluorescence of skin collagen ([1]; Week 32, necropsy samples, Ex=370 nm, Em=440 nm): 0.05 ± 0.02 Arbitrary Units/mol FL | Number of samples in which MDA-lysine was measurable ([1]; Week 32, of 7 animals): (3/7)^d | Effect on increase in CML and CEL in skin collagen ([1]; fa/fa rats): inhibited the increase in CML and CEL | Effect on increase in Maillard-type collagen fluorescence ([1]; necropsy samples, FC 2-fold higher than LN): prevented this increase | Effect on increase in pentosidine in skin collagen ([1]; through week 11): effective in limiting the increase in pentosidine | MDA-lysine detectability in skin collagen ([1]; until 8 months): no MDA-lysine was detectable | Significance of differences in pentosidine between FC and FPM rats ([1]; week 32, p=0.07): marginal | Aorta compared with LN animals [2]: indistinguishable from those of LN animals in all but one animal | Changes in the aortic or coronary vasculature [2]: minimal changes | Albuminuria and plasma creatinine ([3]; STZ-induced diabetic rat): marked reduction in albuminuria and plasma creatinine | Development of renal disease ([3]; STZ-induced diabetic rat): significantly inhibited the development of renal disease | Effect on glycemic control ([3]; STZ-induced diabetic rat): no effect on glycemic control | Reduction in hyperlipidemia ([3]; STZ-rat): > 50% | Fasting plasma insulin ([4]; 32 weeks): 7.3 ± 0.6 µg/L | Effect on insulin resistance ([4]; fa/fa animals): did not significantly affect insulin resistance | Difference in urine volume between FC and FPM animals ([5]; at any point in the study): no significant differences in urine volume | Urinary volume ([5]; end of the study): 27.0 mL/day | Effect on development of proteinuria ([5]; fa/fa rat, confirmed by plasma creatinine): impressive protection against development of proteinuria | Effect on glycemia ([6]; 32 week experiment): no effect on glycemia | Glycated Hemoglobin [6, 12]: 6.8 ± 0.5% | Plasma glucose [6, 12]: 6.8 ± 0.5 mM | Glycated Hemoglobin [6, 13]: 6.5 ± 0.3% | Plasma glucose [6, 13]: 6.9 ± 0.6 mM | Glycated Hemoglobin [6, 14]: 6.8 ± 0.3% | Plasma glucose [6, 14]: 6.8 ± 0.5 mM | Systolic blood pressure course [7]: remained at initial values | Plasma cholesterol ([8]; FC rats approximately 250 mg/dL): ~150 mg/dL | Plasma triglycerides relative to the level in LN animals ([8]; after 10 weeks): about three | Plasma triglycerides relative to the values observed in FC animals ([8]; after 10 weeks): less than 50% | Effect on dyslipidemia, both triglycerides and cholesterol ([8]; fa/fa rat): significantly reduced dyslipidemia | Plasma cholesterol, higher than in LN animals ([8]; rat, in vivo): ~50% | Tolerability of the dose [9]: well tolerated | Glycation of Skin Collagen FL ([10]; Week 0): 3.5 ± 0.2 mmol/mol lysine | Glycation of Skin Collagen FL ([10]; Week 11): 3.0 ± 0.1 mmol/mol lysine | Glycation of Skin Collagen FL ([10]; Week 32): 2.3 ± 0.3 mmol/mol lysine | Inhibition of formation of advanced lipoxidation end-products (ALEs) [11]: potent inhibitor
